Test system: SEM cells
Experiment: cell viability relative to DMSO control; higher = less cytotoxic
Details: 48 h
In short: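 Three leukemia lines were tested: NOMO1 and SEM at 500 cells/well and P12-Ichikawa at 1000 cells/well. Each was adapted for at least four passages in each medium and seeded in 5 μl in 1536-well plates, and library compounds in DMSO were pin-dosed from 47 μM to 0.79 nM in 11 threefold steps. After 48 h at 37°C, CellTiter-Glo One luminescence was read. Viability is a percentage relative to DMSO wells on each plate, with cell-free wells as background.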

[1] = HPLM + 10% dialyzed FBS, 0.000781 µM
[2] = HPLM + 10% dialyzed FBS, 0.00234 µM
[3] = HPLM + 10% dialyzed FBS, 0.00702 µM
[4] = HPLM + 10% dialyzed FBS, 0.0211 µM
[5] = HPLM + 10% dialyzed FBS, 0.0632 µM
[6] = HPLM + 10% dialyzed FBS, 0.19 µM
[7] = HPLM + 10% dialyzed FBS, 0.569 µM
[8] = HPLM + 10% dialyzed FBS, 1.71 µM
[9] = HPLM + 10% dialyzed FBS, 5.12 µM
[10] = HPLM + 10% dialyzed FBS, 15.4 µM
[11] = HPLM + 10% dialyzed FBS, 46.1 µM
[12] = RPMI 5 mM glucose + 10% FBS, 0.000781 µM
[13] = RPMI 5 mM glucose + 10% FBS, 0.00234 µM
[14] = RPMI 5 mM glucose + 10% FBS, 0.00702 µM
[15] = RPMI 5 mM glucose + 10% FBS, 0.0211 µM
[16] = RPMI 5 mM glucose + 10% FBS, 0.0632 µM
[17] = RPMI 5 mM glucose + 10% FBS, 0.19 µM
[18] = RPMI 5 mM glucose + 10% FBS, 0.569 µM
[19] = RPMI 5 mM glucose + 10% FBS, 1.71 µM
[20] = RPMI 5 mM glucose + 10% FBS, 5.12 µM
[21] = RPMI 5 mM glucose + 10% FBS, 15.4 µM
[22] = RPMI 5 mM glucose + 10% FBS, 46.1 µM
[23] = RPMI 5 mM glucose + 10% dialyzed FBS, 0.000781 µM
[24] = RPMI 5 mM glucose + 10% dialyzed FBS, 0.00234 µM
[25] = RPMI 5 mM glucose + 10% dialyzed FBS, 0.00702 µM
[26] = RPMI 5 mM glucose + 10% dialyzed FBS, 0.0211 µM
[27] = RPMI 5 mM glucose + 10% dialyzed FBS, 0.0632 µM
[28] = RPMI 5 mM glucose + 10% dialyzed FBS, 0.19 µM
[29] = RPMI 5 mM glucose + 10% dialyzed FBS, 0.569 µM
[30] = RPMI 5 mM glucose + 10% dialyzed FBS, 1.71 µM
[31] = RPMI 5 mM glucose + 10% dialyzed FBS, 5.12 µM
[32] = RPMI 5 mM glucose + 10% dialyzed FBS, 15.4 µM
[33] = RPMI 5 mM glucose + 10% dialyzed FBS, 46.1 µM

| Compound | cell viability [1] | cell viability [2] | cell viability [3] | cell viability [4] | cell viability [5] | cell viability [6] | cell viability [7] | cell viability [8] | cell viability [9] | cell viability [10] | cell viability [11] | cell viability [12] | cell viability [13] | cell viability [14] | cell viability [15] | cell viability [16] | cell viability [17] | cell viability [18] | cell viability [19] | cell viability [20] | cell viability [21] | cell viability [22] | cell viability [23] | cell viability [24] | cell viability [25] | cell viability [26] | cell viability [27] | cell viability [28] | cell viability [29] | cell viability [30] | cell viability [31] | cell viability [32] | cell viability [33] |
| --- | --- | --- | --- | --- | --- | --- | --- | --- | --- | --- | --- | --- | --- | --- | --- | --- | --- | --- | --- | --- | --- | --- | --- | --- | --- | --- | --- | --- | --- | --- | --- | --- | --- |
| CN1[C@@H]2CC(OC(=O)[C@@H](CO)c3ccccc3)C[C@H]1[C@H]1O[C@H]12 (stereo not given in full) | 85.3% | 88.7% | 91% | 84.7% | 93.5% | 106% | 102% | 110% | 108% | 102% | 98% | 80.9% | 82.9% | 80.7% | 85% | 90.6% | 113% | 96.2% | 106% | 89.2% | 97% | 97.9% | 90.2% | 88.8% | 105% | 86.3% | 96.3% | 105% | 117% | 114% | 101% | 113% | 108% |
| CO[C@H]1/C=C/O[C@@]2(C)Oc3c(C)c(O)c4c(O)c(c5c(nc6cc(C)ccn65)c4c3C2=O)NC(=O)/C(C)=C\C=C\[C@H](C)[C@H](O)[C@@H](C)[C@@H](O)[C@@H](C)[C@H](OC(C)=O)[C@@H]1C | 100% | 97.7% | 100% | 107% | 92.5% | 112% | 113% | 104% | 47.2% | 70% | 1.92% | 106% | 120% | 109% | 125% | 94.9% | 102% | 115% | 111% | 40.5% | 63.1% | 4.47% | 104% | 109% | 98.6% | 109% | 90.2% | 96.8% | 97.1% | 82.1% | 32% | 50.8% | 1.61% |
| Cn1c(=O)c2c(ncn2C)n(C)c1=O.O=C(O)CC(O)(CC(=O)O)C(=O)O | 124% | 117% | 110% | 111% | 112% | 128% | 118% | 114% | 122% | 121% | 106% | 117% | 107% | 112% | 107% | 117% | 106% | 115% | 96.1% | 103% | 110% | 89.7% | 113% | 114% | 120% | 123% | 112% | 124% | 115% | 114% | 117% | 124% | 112% |
| CC(=O)N(C)c1cccc(-c2ccnc3c(C(=O)c4cccs4)cnn23)c1 | 99.9% | 88.7% | 104% | 37.5% | 98.7% | 99.4% | 107% | 103% | 110% | 90% | 91.7% | 108% | 107% | 95.5% | 37.7% | 112% | 101% | 94.1% | 98.5% | 101% | 98.5% | 97% | 104% | 99.7% | 87% | 46.9% | 100% | 101% | 102% | 109% | 118% | 112% | 99.6% |
| Cc1nc(NC(=O)N2CCC[C@H]2C(N)=O)sc1-c1ccnc(C(C)(C)C(F)(F)F)c1 | 91.6% | 98.2% | 84.2% | 96.9% | 93% | 72.5% | 74.4% | 63.3% | 59.1% | 52.7% | 100% | 98.7% | 111% | 102% | 121% | 112% | 91.1% | 97.8% | 86.6% | 74.5% | 68.2% | 119% | 96.3% | 95.9% | 84% | 93% | 85.7% | 92.3% | 86.1% | 77.2% | 62.2% | 58% | 89.2% |
| CCCc1nc(C(C)(C)O)c(C(=O)O)n1Cc1ccc(-c2ccccc2-c2nn[nH]n2)cc1 | 104% | 116% | 97.3% | 112% | 119% | 116% | 58.6% | 60% | 118% | 120% | 110% | 76.4% | 88.1% | 69.3% | 76.7% | 84.5% | 76.5% | 69% | 46.8% | 79.2% | 82.6% | 62.3% | 96% | 104% | 109% | 98.5% | 104% | 109% | 90.3% | 56% | 103% | 105% | 103% |
| CN(CC#C)C/C1=C/C2=CC=CC=C2OC3=CC=CC=C13 | 90.9% | 90.7% | 79.7% | 80.1% | 76.8% | 40.6% | 32.1% | 91.6% | 30.1% | 49.2% | 42% | 100% | 109% | 113% | 105% | 83.3% | 49.9% | 36.8% | 117% | 41.4% | 61.3% | 50.3% | 80.4% | 85.3% | 81.2% | 69.2% | 60.6% | 32.8% | 29.1% | 103% | 29.2% | 47.3% | 37.7% |
| Cc1ccccc1C(C(=O)NC1CCCCC1)N(C(=O)Cn1ccnc1C)c1cccc(F)c1 (stereo not given) | 109% | 31% | 118% | 111% | 109% | 130% | 127% | 124% | 114% | 100% | 92.7% | 112% | 108% | 96.9% | 103% | 98.4% | 114% | 112% | 121% | 110% | 84.1% | 88.9% | 84.5% | 27.9% | 100% | 105% | 102% | 88.5% | 110% | 95.2% | 97.4% | 93.6% | 90.6% |
| CC1CCC(C(=O)N(c2cc(C#CC(C)(C)C)sc2C(=O)O)C2CCC(O)CC2)CC1 (stereo not given) | 106% | 109% | 99.2% | 103% | 98% | 93.3% | 89.1% | 96% | 77.3% | 48.9% | 44.2% | 130% | 119% | 118% | 129% | 116% | 115% | 110% | 123% | 97.4% | 61.1% | 49.8% | 91.7% | 106% | 90.3% | 87.9% | 90.3% | 90.3% | 96.6% | 88.3% | 77.6% | 44.7% | 41.8% |
| C/C=C1\NC(=O)[C@H]2CSSCC/C=C\[C@H](CC(=O)N[C@H](C(C)C)C(=O)N2)OC(=O)[C@H](C(C)C)NC1=O | 81.1% | 89% | 95.1% | 101% | 5.64% | 4.52% | 4.32% | 4.63% | 4.25% | 3.1% | 4.21% | 100% | 103% | 105% | 81.5% | 4.85% | 4.94% | 4.25% | 4.39% | 4.14% | 3.14% | 4.36% | 73% | 106% | 85.9% | 90.4% | 5.18% | 4.76% | 4.87% | 4.53% | 4.12% | 2.58% | 4.19% |

Reference: the supplement of paper PMC11451515
